Results on one molecule are retold here after US9212178B2, “Substituted pyrimidine compounds and their use as SYK inhibitors” (Genosco, priority 2013, dated 2015).

Structures are written as SMILES. Like-named read-outs stand apart in the source and are kept apart here.

One experiment deals with THP-1 cells. The experiment can be described thus: SYK-dependent TNF-α release assay (IgG stimulation), ELISA. The experiment is classed as cell-based. The conditions noted are these: THP-1 cells on human IgG-coated plate, 18 hours; read-out: TNF-α release inhibition, IgG stimulation IC50. On the technique in general: An ELISA detects its analyte on a solid surface through an enzyme-linked reagent.

In experiment [1] the test system is Human peripheral CD19+ B cells. Put plainly: Cellular SLE model: immunoglobulin production in human peripheral B cells stimulated via TLR9 (ODN2006). Format: cell-based. The conditions noted are these: for IC50: 144 h, human B cell, ODN2006 and IL-2, 6 days. An excerpt: Systemic lupus erythematosus (SLE) is a chronic inflammatory autoimmune disease and can affect several organs and systems. It is characterized by high production of autoantibodies against nuclear compounds. TLR7/8/9 are responsible for nucleic acid recognition and they trigger proinflammatory responses through activation of […] and Type I IFN production, making a bridge between the innate and the adaptive immune systems. TLR9 signaling pathway was adopted for cellular SLE model using human peripheral B cells to test potency of SYK inhibitor of Formula (I).
Human peripheral CD19+ B cells from an adult healthy donor were purchased from Sanguine Biosciences (Sherman Oaks, Calif.). B cells were cultured in 96-well plates with complete RPMI 1640 medium (Corning, Tewksbury, Mass.) supplemented with 10% heat-inactivated FBS (Life Technologies, Grand Island, N.Y.) and penicillin/streptomycin (Corning). B cells were stimulated with 1 μM ODN2006 (InvivoGen, San Diego, Calif.) and 20 ng/ml IFNα (PBL Assay Science, Piscataway, N.J.) for 3 days for toll-like receptor-9 (TLR-9)-mediated B cell growth. To differentiate naïve B cells into plasma cells, peripheral B cells were differentiated with 50 nM ODN2006 and 10 ng/ml IL-2 in a presence of various concentrations of SYK inhibitors for 6 days. Culture supernatants were collected and IgM and IgG production was measured using human IgM or IgG ELISA kit (BioLegend).

Experiment [2] deals with Collagen-induced arthritis in DBA/1J mice. The experiment can be described thus: Collagen-induced arthritis (CIA) mouse model, macroscopic paw scoring. Format: in vivo. The following applies: for CIA index (arthritic score of test group / vehicle group x 100): 30 mg/kg/day once daily oral gavage, vehicle = 100.0. The procedure:
CIA mouse model was induced in DBA/1J mice (Japan Charles River Breeding Laboratories, Kanagawa, Japan) with 5 to 6 weeks of age. Animals were maintained at a temperature of 20±5° C. and a relative humidity of 40˜60%.
Bovine type II collagen (CII, 2 mg/ml dissolved in 0.05 M acetic acid, Chondrex, Redmond, Wash.) was emulsified in equal volumes of Freund's complete adjuvant (4 mg/ml of Mycobacterium tuberculosis strain H37Ra; Chondrex, Redmond, Wash.). On day 0, mice were immunized intradermally at the base of the tail with 100 μg bovine type II collagen emulsified in Freund's complete adjuvant. On day 21, all mice were boosted with an intraperitoneal injection of 100 μg type II collagen.
These compounds were dissolved in NMP/20% cyclodextrin/PEG400 5:45:50 solution and filtered by […] membrane filter. All the test substances were administered once daily at 30 mg/kg/day by oral gavage for 3 weeks.
The gradual onset of arthritis usually starts approximately 3 weeks after initial immunization. The progression of CIA was evaluated by the macroscopic scoring of paws at intervals of 3 days. The edema and swelling of each paw was scored visually as was described previously, using a scale of 0-4, where 0=no visible abnormalities, 1=mild redness or swelling of the wrist or up to three inflamed digits, 2=more than three inflamed digits or moderate redness and swelling of the ankle or wrist, 3=severe ankle and wrist inflammation, 4=extensive ankle and wrist inflammation including all digits. Therefore, the score of each mouse was calculated for the four limbs (maximum total score of 16 for each mouse) (Courtenay J S, Dallman M J, Dayan A D, et al., Immunisation against heterologous type II collagen induces arthritis in mice, Nature, 1980, 283, 666-668)
Arthritis was considered to be present if the score was >2. The blind scoring was performed by four independent observers. In this study, data was calculated by following equation. […] Results

The test system of the next experiment is OCI-LY1. The experiment can be described thus: DLBCL cell proliferation, ATPLite assay. The experiment is classed as cell-based, human. The source says:
(§1) Several lines of evidence support the role of B cell receptor (BCR)-mediated survival signals in certain B cell malignancies such as non-Hodgkin lymphomas (NHL) including diffuse large B cell lymphoma (DLBCL). B cell receptor (BCR) signaling pathway components represent promising treatment targets in diffuse large B cell lymphoma (DLBCL) and additional B cell tumors. In order to address whether SYK inhibitor of Compounds of Formula (I), cellular viability of diffuse large B cell lymphoma (DLBCL) cells was measured on treatment of a series of concentration of SYK inhibitor.
(§2) The DLBCL cells, SUDHL4, SUDHL6 and OCI-LY1 […] were obtained from the American Type Culture Collection (ATCC, Manassas, Va., USA) or DSMZ (Braunschweig, Germany). […] The SUDHL4, SUDHL6 and OCI-LY1 cells were seeded at 1×10^5 cells/100 μL/well into 96 well culture plate, and serially diluted compound was then added. After an 72 hours of incubation period at 37° C., cells were subjected to an ATPLite assay (PerkinElmer) to determine the cytotoxic effects of the compound. The IC50 value of the test compound was calculated at Gradpad Prism 5 unless otherwise specified.
A general note: ATP-based viability assays read luminescence as a measure of living cells.

The subject of a further experiment is SUDHL4. Put plainly: DLBCL cell proliferation, ATPLite assay. The experiment is classed as cell-based, human.
Source text: as §1, §2

In a further experiment the test system is SUDHL6. Put plainly: DLBCL cell proliferation, ATPLite assay. The experiment is classed as cell-based, human.
Source text: as §1, §2

For `Cc1nn(-c2ccnc(Nc3ccc4c(c3)c(C(=O)C3CC3)cn4C)n2)cc1CN1C[C@H](O)CO1` [Compound 1, (S)-cyclopropyl(5-(4-(4-((4-hydroxyisoxazolidin-2-yl)methyl)-3-methyl-1H-pyrazol-1-yl)pyrimidin-2-ylamino)-1-methyl-1H-indol-3-yl)methanone], the IC50 in the experiment on THP-1 cells was 52 nM; in experiment [1] (read-out: Inhibition of immunoglobulin production, IgG IC50) it was 296 nM; in experiment [1] (read-out: Inhibition of immunoglobulin production, IgM IC50) it was 232 nM; with OCI-LY1 (Homo sapiens, OCI-LY1, 72 hours, read-out: Inhibition of proliferation IC50), 1830 nM; in the experiment with SUDHL4 (Homo sapiens, SU-DHL-4, SUDHL4, 72 hours, read-out: Inhibition of proliferation IC50) it was 1070 nM; in the experiment with SUDHL6 (Homo sapiens, SU-DHL-6, SUDHL6, 72 hours, read-out: Inhibition of proliferation IC50), 2840 nM. Further, in experiment [1] (TLR9 stimulated by ODN2006 and IFNα), the “Inhibition of IgG and IgM production (in words)” value is recorded as “potent inhibition”. In addition, the “Inhibition in arthritis phenotype indicated by CIA, compared with R788 (in words)” value in experiment [2] (30 mg/kg/day oral, versus R788) was “stronger inhibition”. Also, the “CIA index (arthritic score of test group / vehicle group x 100)” value in experiment [2] (day 4) was 3.0 ± 2.8%; in experiment [2] (day 7), 24.0 ± 9.2%; in experiment [2] (day 10) it was 40.1 ± 13.8%; in experiment [2] (day 13), 36.2 ± 12.0%; in experiment [2] (day 17), 33.5 ± 10.5%; in experiment [2] (day 19), 33.6 ± 10.4%. Further, the “Inhibition of proliferation (in words)” value in the experiment with OCI-LY1 (OCI-LY1), with SUDHL4 (SUDHL4) and in the experiment with SUDHL6 (SUDHL6) was “potent inhibition” throughout.
